Test results: patent US12582731B2, “Method to decontaminate solid surface” (BIOMONETA RESEARCH PVT LTD, priority 2022, dated 2026)

How the values were obtained:
microbial load [1] = assay: Microbial load reduction on QAC-coated cotton cloth with or without electric field; format: cell-based
Procedure: The effect of QAC coating and electric field application on flexible solid surfaces was analysed. The solid surface analysed was fabric (cotton cloth). The procedure for coating of QAC (CTAB or benzalkonium chloride) onto the cotton cloth was identical to the procedure described in Example 1. The final coated amount of QAC (CTAB or benzalkonium chloride) was between 0.01-0.05 mg/cm^2 of the solid surface. The electric field in this experiment was applied via. switch mode power supply (SMPS) with a voltage of 4 kV/cm coupled with a capacitance of 0.05 μF for various time-periods.
Reduction in microbial load was analysed using different methods.

microbial load [2] = assay: Microbial load reduction on cotton cloth coated with quaternary ammonium compound alone; format: cell-based; conditions: no electric field
Procedure: The solid surface (cotton cloth) was suspended in a solution containing cetyltrimethylammonium bromide (CTAB) or alkyl dimethyl benzyl ammonium chloride (benzalkonium chloride) at various concentrations for about 2 hours. The solid surfaces were then heat dried in a furnace where the temperature was set at about 80° C., for about 8 hours. Once dried, the solid surfaces coated with QAC were ready to be used for various applications.
Reduction in microbial load was analysed at different concentrations of QACs.

alkyl dimethyl benzyl ammonium chloride [benzalkonium chloride]
Microbial Load Reduction (Log10 Scale) (microbial load [1]; cotton cloth coated with 1% w/v, With Electric Field (SMPS, 4 kV/cm, 0.05 μF), 0 mins): 0.00 Log10 | Microbial Load Reduction (Log10 Scale) (microbial load [1]; cotton cloth coated with 1% w/v, With Electric Field (SMPS, 4 kV/cm, 0.05 μF), 10 mins): 1.51 Log10 | Microbial Load Reduction (Log10 Scale) (microbial load [1]; cotton cloth coated with 1% w/v, With Electric Field (SMPS, 4 kV/cm, 0.05 μF), 30 mins): 2.39 Log10 | Microbial Load Reduction (Log10 Scale) (microbial load [1]; cotton cloth coated with 1% w/v, Without Electric Field, 0 mins): 0.00 Log10 | Microbial Load Reduction (Log10 Scale) (microbial load [1]; cotton cloth coated with 1% w/v, Without Electric Field, 10 mins): 0.82 Log10 | Microbial Load Reduction (Log10 Scale) (microbial load [1]; cotton cloth coated with 1% w/v, Without Electric Field, 30 mins): 1.70 Log10 | Microbial Load Reduction (Log10 Scale) (microbial load [1]; cotton cloth coated with 10% w/v, With Electric Field (SMPS, 4 kV/cm, 0.05 μF), 0 mins): 0.00 Log10 | Microbial Load Reduction (Log10 Scale) (microbial load [1]; cotton cloth coated with 10% w/v, With Electric Field (SMPS, 4 kV/cm, 0.05 μF), 10 mins): 1.16 Log10 | Microbial Load Reduction (Log10 Scale) (microbial load [1]; cotton cloth coated with 10% w/v, With Electric Field (SMPS, 4 kV/cm, 0.05 μF), 30 mins): 3.03 Log10 | Microbial Load Reduction (Log10 Scale) (microbial load [1]; cotton cloth coated with 10% w/v, Without Electric Field, 0 mins): 0.00 Log10 | Microbial Load Reduction (Log10 Scale) (microbial load [1]; cotton cloth coated with 10% w/v, Without Electric Field, 10 mins): 0.92 Log10 | Microbial Load Reduction (Log10 Scale) (microbial load [1]; cotton cloth coated with 10% w/v, Without Electric Field, 30 mins): 3.10 Log10 | Microbial Load Reduction (Log10 Scale) (microbial load [2]; cotton cloth coated with 1% w/v, 0 mins): 0.00 Log10 | Microbial Load Reduction (Log10 Scale) (microbial load [2]; cotton cloth coated with 1% w/v, 10 mins): 0.82 Log10 | Microbial Load Reduction (Log10 Scale) (microbial load [2]; cotton cloth coated with 1% w/v, 30 mins): 1.70 Log10 | Microbial Load Reduction (Log10 Scale) (microbial load [2]; cotton cloth coated with 1% w/v, 45 mins): 4.57 Log10 | Microbial Load Reduction (Log10 Scale) (microbial load [2]; cotton cloth coated with 1% w/v, 60 mins): 7.48 Log10 | Microbial Load Reduction (Log10 Scale) (microbial load [2]; cotton cloth coated with 1% w/v, 90 mins): 7.48 Log10 | Microbial Load Reduction (Log10 Scale) (microbial load [2]; cotton cloth coated with 10% w/v, 0 mins): 0.00 Log10 | Microbial Load Reduction (Log10 Scale) (microbial load [2]; cotton cloth coated with 10% w/v, 10 mins): 0.92 Log10 | Microbial Load Reduction (Log10 Scale) (microbial load [2]; cotton cloth coated with 10% w/v, 30 mins): 3.10 Log10 | Microbial Load Reduction (Log10 Scale) (microbial load [2]; cotton cloth coated with 10% w/v, 45 mins): 7.30 Log10 | Microbial Load Reduction (Log10 Scale) (microbial load [2]; cotton cloth coated with 10% w/v, 60 mins): 7.30 Log10 | Microbial Load Reduction (Log10 Scale) (microbial load [2]; cotton cloth coated with 10% w/v, 90 mins): 7.30 Log10
